Drawing on US5760036A, “Aminediol protease inhibitors” (E. R. Squibb & Sons, Inc., priority 1995, dated 1998), this text covers inhibition and IC50 for 16 compounds.

Molecules are shown by their SMILES. Where two headings read alike, the source gives them in different places. Some results are limits rather than exact numbers.

One assay deals with T1, HIV protease (Human immunodeficiency virus type 1 group M subtype B, UniProt P04585).
T1 construct: and purified protease
The experiment in a line: HIV Protease Assay. The assay is classed as biochemical. An outline of the steps:
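At a single final concentration of 10 μM (4% DMSO), inhibitors were added to a 30-minute, 37° C reaction of purified enzyme with 450 μM H2N-Val-Ser-Gln-Asn-(β-naphthyl-alanine)-Pro-Val-Ile-OH at pH 5.5 (sodium acetate, BSA). Hydrolysis was quantified by reverse-phase HPLC with 220 nm detection after acid quench.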

Assay [1] deals with RF strain of HIV (CEM-SS cells). The experiment in a line: Cell Culture Anti-HIV Activity (cell viability, formazan). The assay is classed as cell-based. The following applies: CEM-SS cells, RF strain of HIV, multiplicity of infection 0.04, 6 days at 37° C., 450 nm, read-out: HIV (CEM Cells) IC50. An outline of the steps: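 Half-log compound dilutions added to CEM-SS cells (5000/well) carrying HIV RF (MOI 0.04), 6 days, 37° C. Cell protection measured as formazan from tetrazolium, A450. IC50: drug level restoring infected-cell formazan to 50% of the uninfected untreated control.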

Setting [2] is: pH 5.5, 10 μM inhibitor, 4% DMSO, 450 μM substrate, pH 5.5, 30 minutes at 37° C., RP-HPLC, read-out: HIV Protease % Inhibition at 10 μM.
Setting [3] is: Human immunodeficiency virus 1, CEM-SS, 144 h.

By inhibition is commonly meant the drop in the measured response relative to a control, in per cent. Usually IC50 stands for the concentration that inhibits the measured activity by half. Consider `CC(C)(C)OC(=O)N[C@@H](Cc1ccccc1)[C@H](O)CNC[C@@H](O)[C@H](Cc1ccccc1)NC(=O)[C@@H](NC(=O)OCCOCc1ccccc1)C(C)(C)C` [Compound 351, [S-[1R*,2S*(2S*,3R*)]]-[2,2-Dimethyl-1-[[[3-[[3-[[(1,1-dimethyl-ethoxy)carbonyl]amino]-2hydroxy-4-phenylbutyl]amino-2-hydroxy-1-(phenylmethyll)-propyl]amino]carbonyl]propyl]carbamic acid, 2-(phenylmethoxy)ethyl ester], for which the inhibition at 10 µM at HIV protease (setting [2]) came out at 99%. In assay [1] (setting [3]), the IC50 is 80 nM.
Taken in the same sequence, the figures for `CC(C)[C@H](NC(=O)[C@H](C)O)C(=O)N[C@@H](Cc1ccccc1)[C@H](O)CNC[C@@H](O)[C@H](Cc1ccccc1)NC(=O)OC(C)(C)C` [Compound 225, [1S-[[1R*,2S*(2S*,3R*)],N^2-(R*)]-N-[3-[[3-[[(1,1-Dimethylethoxy)carbonyl]amino]-2-hydroxy-4-phenylbutyl]amino]-2-hydroxy-1-(phenylmethyl)propyl]-N^2-(2-hydroxy-1-oxo-propyl)-L-valinamide] were 99% and 500 nM.
Turning to `CC(C)(C)OC(=O)N[C@@H](Cc1ccccc1)[C@H](O)CNC[C@@H](O)[C@H](Cc1cccc(O)c1)NC(=O)OC(C)(C)C` [Compound 29, [1S-[1R*,2S*(2S*,3R*)]]-[3-[[3-[[(1,1-Dimethylethoxy)-carbonyl]amino]-2-hydroxy-4-(3-hydroxyphenyl)butyl]-amino]-2-hydroxy-1-(phenylmethyl)propyl]carbamic acid, 1,1-dimethylethyl ester], the inhibition at 10 µM on HIV protease (pH 5.5, read-out: HIV Protease % Inhibition at 10 μM) came to 100%. For the same compound, in assay [1] (setting [3]), the IC50 is 100 nM.
Take `CC(C)(C)OC(=O)N[C@@H](Cc1ccccc1)[C@H](O)CNC[C@@H](O)[C@H](Cc1ccccc1)NC(=O)[C@@H](NC(=O)OCc1cc2ccncc2o1)C(C)(C)C` [Compound 339, [S-[1R*,2S*(2S*,3R*)]]-[2,2-Dimethyl-1-[[[3-[[3-[[(1,1-dimethylethoxy)carbonyl]amino]-2-hydroxy-4-phenylbutyl]amino]-2-hydroxy-1-(phenylmethyl)-propyl]amino]carbonyl]propyl]carbamic acid, (2-furo[2,3-c]pyridinyl) methyl ester]: the inhibition at 10 µM at HIV protease (setting [2]) came out at 99%. Further, the IC50 in assay [1] (setting [3]) amounted to 12 nM.
In the case of `CC(C)[C@H](NC(=O)N(C)Cc1nc2ccccc2[nH]1)C(=O)N[C@@H](Cc1ccccc1)[C@H](O)CNC[C@@H](O)[C@H](Cc1ccccc1)NC(=O)OC(C)(C)C` (relative stereo) [Compound 245, [1R*,2S*(2S*,3R*)]-N-[3-[[3-[[(1,1-Dimethylethoxy)carbonyl]amino]-2-hydroxy-4-phenylbutyl]amino]-2-hydroxy-1-(phenylmethyl)propyl]-N^2-[[(1H-benzimidazol-2-yl-methyl)methylamino]carbonyl]-L-valinamide], the inhibition at 10 µM at HIV protease (setting [2]) amounted to 100%. Further, the 50% inhibitory concentration (IC50) in assay [1] (setting [3]) was 1800 nM.
Taken in the same sequence, the figures for `CC(C)(C)[C@@](C)(O)C(=O)N[C@@H](Cc1ccccc1)[C@H](O)CNC[C@@H](O)[C@H](Cc1ccccc1)NC(=O)[C@](C)(O)C(C)(C)C` [Compound 344, [2R-[R*(R*,S*)]]-N,N'-[Iminobis[2-hydroxy-l-(phenylmethyl)-3,1-propanediyl]]bis[2-hydroxy-2,3,3-trimethylbutaneamide]] were 99% and 30 nM.
In the case of `CC(C)(C)OC(=O)N[C@@H](Cc1ccccc1)[C@H](O)CNC[C@@H](O)[C@H](Cc1ccccc1)NC(=O)C(NC(=O)OCc1ccccc1)C(F)(F)F` (stereo partly drawn) [Compound 328, [1S-[1R*,2S*(2S*,3R*)]]-[2-[[3-[[3-[[(1,1-Dimethylethoxy)carbonyl]amino]-2-hydroxy-4-phenylbutyl]amino]-2-hydroxy-1-(phenylmethyl)propyl]amino]-2-oxo-1-(trifluoromethyl)ethyl]carbamic acid, phenylmethyl ester], the inhibition at 10 µM on HIV protease (setting [2]) amounted to 99%. In assay [1] (setting [3]), the half-inhibitory concentration (IC50) was determined as 540 nM.
Taken in the same sequence, the figures for `CC(C)(C)OC(=O)N[C@@H](Cc1ccccc1)[C@H](O)CNC[C@@H](O)[C@H](Cc1ccccc1)NC(=O)C(O)C(F)(F)F` (single isomer, unassigned; isomer a) [Compound 271, [1S-[1R*,2S*(2S*,3R*)]]-[2-Hydroxy-1-(phenylmethyl)-3-[[2-hydroxy-4-phenyl-3-[(3,3,3-trifluoro-2-hydroxy-1-oxopropyl)amino]butyl]amino]-propyl]carbamic acid, 1,1-dimethylethyl ester (isomer A)] were 99% and 60 nM.
Regarding `C[C@H](NC(=O)OCc1nc2ccccc2[nH]1)C(=O)N[C@@H](Cc1ccccc1)[C@H](O)CNC[C@@H](O)[C@H](Cc1ccccc1)NC(=O)OC(C)(C)C` (relative stereo) [Compound 220, [1R*,2S*(2S*,3R*)]-N^2-[[(2-Benzimidazolyl)methoxy]carbonyl]-N-[3-[[3-[[(1,1-dimethylethoxy)carbonyl]amino]-2-hydroxy-4-phenylbutyl]amino]-2-hydroxy-1-(phenylmethyl)propyl]-L-alaninamide], the inhibition at 10 µM on HIV protease (setting [2]) was 100%. Also, the IC50 in assay [1] (setting [3]) came out at 770 nM.
Turning to `CC(C)(C)OC(=O)N[C@@H](Cc1ccccc1)[C@H](O)CNC[C@@H](O)[C@H](Cc1ccccc1)NC(=O)C(NC(=O)OCc1ccccc1)C(C)(C)CO` (single isomer, unassigned; isomer a) [Compound 308, [1S-[1R*,2S*(2S*,3R*)]]-1-[[[3-[[(1,1-Dimethylethoxy)carbonyl]amino]-2-hydroxy-4-phenylbutyl]amino]-2-hydroxy-1-(phenylmethyl)propyl]amino]carbonyl-2-(hydroxymethyl)-2-methylpropyl] carbamic acid, phenylmethyl ester, isomer A], the inhibition at 10 µM at HIV protease (setting [2]) stood at 100%. The IC50 in assay [1] came out at 20 nM.
On to `CC(C)(C)OC(=O)N[C@@H](Cc1ccccc1)[C@H](O)CNC[C@@H](O)[C@H](Cc1ccc(OCCN2CCOC2=O)cc1)NC(=O)OC(C)(C)C` [Compound 343, [1S-[1R*,2S*(2S*,3R*)]]-[1-[[[3-[[(1,1-Dimethylethoxy)carbonyl]amino]-2-hydroxy-4-[4-[2-(2-oxo-3-oxazolidinyl)ethoxy]phenyl]butyl]amino]-2-hydroxy-1-(phenylmethyl)propyl]carbamic acid, 1,1-dimethylethyl ester], for which the inhibition at 10 µM at HIV protease (setting [2]) was determined as 99%. Further, the IC50 in assay [1] (setting [3]) is 50 nM.
With `CC(C)(C)OC(=O)N[C@@H](Cc1ccccc1)[C@H](O)CNC[C@@H](O)[C@H](Cc1ccccc1)NC(=O)OC(C)(C)CCCNCc1ccccc1` [Compound 153, [1S-(1R*,2S*)]-[Iminobis[2-hydroxy-1-(phenylmethyl)-3,1-propanediyl]biscarbamic acid, 1,1-dimethylethyl 1,1-dimethyl-4-[(phenylmethyl)-amino]butyl ester], the inhibition at 10 µM on HIV protease (setting [2]) came out at 65%. The half-maximal inhibitory concentration (IC50) in assay [1] (setting [3]) was above 550 nM.
As to `CC(C)[C@@H](NC(=O)OCc1ccccc1)C(=O)N[C@@H](Cc1ccccc1)[C@H](O)CNC[C@@H](O)[C@H](Cc1ccccc1)NC(=O)OC(C)(C)C` [Compound 71, [R-[1S*,2R*(2R*, 3S*)]]-N-[3-[[3-[[(1,1-Dimethylethoxy)carbonyllamino]2-hydroxy-4-phenylbutyl]amino]-2-hydroxy-1-phenylmethyl)propyl]-N^2-[(phenylmethoxy)-carbonyl]-D-valinamide], on HIV protease (setting [2]), the inhibition at 10 µM was found to be 58%. In addition, the concentration for half-maximal inhibition (IC50) in assay [1] (setting [3]) turned out to be 1200 nM.
Take `CC(C)(C)OC(=O)N[C@@H](Cc1ccccc1)[C@H](O)CNC[C@@H](O)[C@H](Cc1ccccc1)NC(=O)C(NC(=O)OCc1ccccc1)C(C)(C)O` (single isomer, unassigned; isomer b) [Compound 302, [1S-[1R*,2S*(2S*,3R*)]]-[1-[[[3-[[(1,1-Dimethylethoxy)carbonyl]amino]-2-hydroxy-4-phenylbutyl]amino]-2-hydroxy-1-(phenylmethyl)propyl]amino]carbonyl]-2-hydroxy-2-methylpropyl]carbamic acid, phenylmethyl ester, isomer B]: the inhibition at 10 µM on HIV protease (setting [2]) came out at 99%. Moreover, the IC50 in assay [1] (setting [3]) worked out at 250 nM.
With `CC(C)(C)OC(=O)N[C@@H](Cc1ccccc1)[C@H](O)CNC[C@@H](O)[C@H](Cc1ccc(OCCc2ccccn2)cc1)NC(=O)OC(C)(C)CO` [Compound 282, [1S-[1R*,2S*(2S*,3R*)]]-[3-[[3-[[(1,1-Dimethylethoxy)carbonyl]amino]-2-hydroxy-4-phenylbutyl]amino]-2-hydroxy-1-[[4-[2-(2-pyridinyl)ethoxy]phenyl]methyl]propyl]carbamic acid, 2-hydroxy-1,1-dimethylethyl ester], the inhibition at 10 µM on HIV protease (setting [2]) was 100%. In assay [1] (setting [3]), the IC50 was found to be 60 nM.
The matching figures for `CC(C)(C)OC(=O)N[C@@H](Cc1ccccc1)[C@H](O)CNC[C@@H](O)[C@H](Cc1ccc(OCC(=O)O)cc1)NC(=O)OC(C)(C)C` [Compound 346, [1S-[1R*,2S*(2S*,3R*)]-[4-[4-(Carboxymethoxy)phenyl)-3-[[3-[[1,1-dimethylethoxy)carbonyl]amino]-2-hydroxy-1-(phenylmeyhyl)propyl)carbamic acid, 1, 1dimethylethyl ester]: 98% and above 50000 nM.
